These results are taken from patent US8324202B2, “5-phenyl-1H-benzo [E] [1,4] diazepine compounds substituted with an hydroxamic acid group as histone deacetylase inhibitors” (Universita Degli Studi di Firenze, priority 2007, dated 2012).

Like-named read-outs stand apart in the source and are kept apart here.

Common to all, as to format: cell-based, human
Assay [1] concerns NB4 cells. Nature of the assay: Granulocytic differentiation, cytofluorimetric analysis of CD11b membrane expression, alone or with ATRA. The following applies: for % of CD11b+ cells: three days. As to the method: Identification of markers of myeloid maturation was determined by flow cytometry by labelling cells with PE-conjugated antibody and FITC-conjugated antibody to CD11b (granulocyte marker) and CD14 (monocyte marker) respectively (Becton-Dickinson). Cell suspension aliquots (1×10^5 cells) were washed with cell wash buffer (Becton-Dickinson) and incubated with antibodies for 30 minutes in ice. After the incubation cells, resuspended in 0.3 mL of buffer containing Actinomycin D (Becton-Dickinson) to evaluate cell viability, were submitted to the cytofluorimetric analysis (FACScan, Becton-Dickinson). Cells incubated with appropriately labeled isotype controls were used to gate nonspecific fluorescence signal.
(§1) • Compounds (II) in racemic form and enantiomers S or R. • Compounds (III) in racemic form and enantiomers S or R. • Compounds (II) with R1 and R2=hydrogen were tested for their capability to synergize with ATRA and for their ability to induce granulocyte differentiation in the human promyelocytic cell line NB4. ATRA at the final concentration of 1 μM is usually employed to induce granulocyte differentiation in NB4 cells.
(§2) NB4 cells were incubated for three days in presence of the compounds listed above, alone or in combination with ATRA. Granulocyte differentiation of leukemic cells was determined by (a) Nitro-Blu tetrazolium (NBT) reduction to dark formazan precipitate (blu positive cells) counting NBT positive cells on Burker chamber and (b) cytofluorimetric analysis of CD11b membrane expression (granulocyte marker, see example 32).

A further assay has as its system acetylated H4 histone. Nature of the assay: Histone deacetylase inhibition: western blot for acetylated histone H4 in cells incubated 6 hours with drug. Conditions: for Acetyl-H4 densitometric value: 6 hours, untreated = 0; for H4 histone acetylating activity, in words: summary in description. The procedure:
(§3) The new described compounds were tested for their ability to inhibit the histone deacetylase activity by western blot for the acetylated isoforms of histone H3 and H4 and also to induce growth arrest in cancer cells by activating apoptosis and/or cell differentiation. Initially, biological activities of newly synthesized HDACi were assessed by using the human acute promyelocytic leukemia cell line NB4, as the experimental model. Cells were maintained in RPMI (Bio-Whittaker Europe, Verviers, Belgio) supplemented with 10% of fetal calf serum (FCS, Boehringer Mannheim, Germania) and 2 mM glutamine (Merck, Darmstadt, Germania) at 37° C. in a humidified atmosphere of 5% CO2. Cells were counted in a Burker chamber and cells viability was assessed by the trypan blu exclusion test.
(§4) Cells, obtained as described above, were harvested in sterile plates (Falcon, Becton Dickinson, Franklin Lakes, N.J.) at density of 6×10^5/mL, and incubated for 6 hours with increasing drug concentration of single compounds. Then, the cells were lysated with RIPA buffer (50 mM Tris-HCl pH 7.4, 150 mM NaCl, 1% Nonidet P-40, 1 mM EDTA plus protease inhibitor cocktail (Protease Inhibitor Cocktail Set III, n° cat. 539134, Calbiochem, Merck, Darmstadt, Germany) and sonicated (Labsonic 1510) twice for 15s pulses at 1-2 Watts in ice. Protein concentration of cell extracts was determined according to the bicinchoninic acid colorimetric method (BCA, Pierce, Rockford, USA) by using serum bovine albumin as the standard (BSA, Sigma, Steinheim, Germania). Equal amounts of protein (20-40 μg/20-30 μL/well) were separated on NuPAGE Bis-Tris 12% gel (Novex, Invitrogen, Carlsbad, Calif.) 10% and transferred to nitrocellulose membranes (Pro-Bind, pore diameter=0.45 μm; Amersham Pharmacia). Then membranes, incubated in phosphate buffer saline (PBS) with 6% defatted dry milk as blocking solution to saturate unspecific binding sites, were probed overnight at 4° C. with primary antibodies (1;1000 dilution in PBS) raised against acetylated H4 a H3 histone isoforms (Upstate Technologies, Lake Placid, N.Y., USA). […] The experiment was performed with the compound (II) S form, where R1 and R2 can be independently a methyl group or hydrogen.
A general note: Immunoblotting shows a protein as a band on a membrane.

In assay [2] the test system is NB4 cells. Description: Cytostatic and apoptotic activity, Annexin-V-FLUOS/propidium iodide flow cytometry, 48 hours. The following applies: for IC50: 48 hours, graphic extrapolation of Annexin-V results, viable cells over control, read-out: IC50 (drug concentration reducing cell density or viability by 50%); for apoptotic activity, in words: leukemic cells, summary in description. As to the method: as §3
Cells, were initially harvested at 4×10^5/mL (3 mL/well) cell density 24 well plate and incubated for 48 hours with increasing drug concentration. All compounds were solubilized in DMSO so that the final concentration of vehicle in culture was lower than 0.1%. At the end of treatment cell viability and apoptosis were evaluated by cytofluorimetric analysis using Anexin-V-Fluos staining (Annexin-V-FLUOS Staining Kit, Roche Molecular Biochemicals, Mannheim, Germany).
Necrotic cells, which are also Annexin-V positive, were identified by using Propidium iodide fluorochrome, that is capable of penetrating cell membranes of dying or dead cells and binding DNA.
Briefly, aliquots of cell suspensions (approximately 10^5 cells) washed in buffer PBS, were resuspended in 5 μl of binding buffer containing annexin V-fluorescein isothiocyanate (FITC) and propidium iodide; incubation was carried out for 15 minutes at room temperature, and cells were then analyzed by flow cytometry (FACScan Becton-Dickinson, San Jose, Calif.).
The IC50 values (i.e. the drug concentration necessary to reduce cell density or viability by 50% as compared to untreated control cultures) obtained by graphic extrapolation of the Anexin-V results and expressed as percentage of viable cells over control were reported In Table 2.
Data represent the percentage of viable cells as the function of drug concentration.

The test system of assay [3] is NB4 cells. Description: Granulocytic differentiation, NBT reduction assay, alone or with ATRA. The following applies: for % of NBT+ cells: three days. As to the method: The analysis of functional myeloid differentiation induced by compounds of the invention was accomplished by Nitro-Blu tetrazolium (NBT) reduction assay as described below. Cell suspension (approximately 10^5/mL) were incubated in the presence of 0.25 mg/mL NBT and 500 ng of PMA (Phorbol-12-Myristate 13-acetate) (Sigma) at 37° C. for 30 minutes. Granulocyte or monocyte differentiated cell were capable of reducing NBT to dark formazan precipitate (blu positive cells). NBT positive cells were counted on Burker chamber and expressed as percentage of total cell population.
as §1, §2

In another assay the test system is acetylated H3 histone. Description: Histone deacetylase inhibition: western blot for acetylated histone H3 in cells incubated 6 hours with drug. Conditions: for Acetyl-H3 densitometric value: 6 hours, untreated = 1. As to the method: as §3, §4

In the case of `CC1N=C(c2ccccc2)c2cc(C#CCCCC(=O)NO)ccc2N(C)C1=O` (racemic) [Compound (II) racemic with R1 or R2 = Me, N-hydroxy-6-(1,3-dimethyl-2-oxo-5-phenyl-2,3-dihydro-1H-benzo[e][1,4]diazepin-7-yl)-5-hexynamide], the “% of CD11b+ cells” value in the assay with NB4 cells [1] (3 μM compound + 20 nM ATRA) turned out to be 81.7%; in the assay on NB4 cells [1] (3 μM compound alone), 31.2%. The results for the Acetyl-H4 densitometric value in the assay on acetylated H4 histone (1 μM), in the assay on acetylated H4 histone (2 μM) and in the assay on acetylated H4 histone (5 μM) were 1.67 arbitrary units, 5.92 arbitrary units and 16.29 arbitrary units, respectively. Moreover, the IC50 with NB4 cells [2] (Homo sapiens, NB-4) was 3.4 µM. Besides, in the assay with NB4 cells [2], the “apoptotic activity, in words” value is reported as “good ability to induce apoptosis”. In addition, the “increase of NBT positive cells, combination versus each agent alone” value in the assay with NB4 cells [3] (3 μM compound + 20 nM ATRA) is on record as “up to 50 fold”. Moreover, the “% of NBT+ cells” value with NB4 cells [3] (3 μM compound + 20 nM ATRA) was 72%; in the assay on NB4 cells [3] (3 μM compound alone), “≦1%”. The Acetyl-H3 densitometric value is listed as 3.73 arbitrary units in the assay on acetylated H3 histone (1 μM), 4.61 arbitrary units with acetylated H3 histone (2 μM) and 5.19 arbitrary units in the assay on acetylated H3 histone (5 μM).

`CC1N=C(c2ccccc2)c2cc(NC(=O)CCCCCCC(=O)NO)ccc2N(C)C1=O` (racemic) [Compound (III) racemic with R1 or R2 = Me, N1-hydroxy-N8-(1,3-dimethyl-2-oxo-5-phenyl-2,3-dihydro-1H-1,4-benzo[e][1,4]diazepin-7-yl)octanediamide]: the Acetyl-H4 densitometric value in the assay on acetylated H4 histone (2 μM) turned out to be 12.96 arbitrary units; in the assay on acetylated H4 histone (4 μM), 23.7 arbitrary units; with acetylated H4 histone (10 μM), 28.15 arbitrary units. The IC50 in the assay with NB4 cells [2] is 4 µM. In addition, the Acetyl-H3 densitometric value in the assay with acetylated H3 histone (2 μM) came out at 4.04 arbitrary units; in the assay on acetylated H3 histone (4 μM), 4.92 arbitrary units; with acetylated H3 histone (10 μM) it was 5.42 arbitrary units. Also, in the assay on acetylated H3 histone (summary in description), the “HDAC inhibitory / acetylating activity, in words (histone not specified)” value is on record as “good inhibitory activity”.

For the molecule `CN1C(=O)C(NC(=O)CCCCCCC(=O)NO)N=C(c2ccccc2)c2ccccc21` (racemic) [Compound (IV) racemic, N1-hydroxy-N8-(1-methyl-2-oxo-5-phenyl-2,3-dihydro-1H-benzo[e][1,4]diazepin-3-yl)octanediamide], the values for the Acetyl-H4 densitometric value with acetylated H4 histone (0.5 μM), in the assay with acetylated H4 histone (1 μM) and in the assay on acetylated H4 histone (2.5 μM) were 1 arbitrary units, 5.78 arbitrary units and 10.89 arbitrary units, respectively. Moreover, the “H4 histone acetylating activity, in words” value in the assay on acetylated H4 histone is recorded as “good acetylating activity of H4 histone”. In the assay with NB4 cells [2] (Homo sapiens, NB-4), the IC50 is 0.57 µM. In addition, the Acetyl-H3 densitometric value in the assay with acetylated H3 histone (0.5 μM) was found to be 2.67 arbitrary units; in the assay with acetylated H3 histone (1 μM), 3.17 arbitrary units; in the assay with acetylated H3 histone (2.5 μM) it was 3.38 arbitrary units. Besides, the “H3 histone acetylating activity, in words” value in the assay with acetylated H3 histone (summary in description) is reported as “reasonably good activity toward H3 histone”.

For `CN1C(=O)CN=C(c2ccccc2)c2cc(C#CCCCC(=O)NO)ccc21` [Compound (II) R1 and R2 = hydrogen, 6-(1-methyl-2-oxo-5-phenyl-2,3-dihydro-1H-benzo[e][1,4]diazepin-7-yl)-N-hydroxyhex-5-ynamide], the “% of CD11b+ cells” value in the assay with NB4 cells [1] (1.5 μM compound + 20 nM ATRA) came to 74.3%; with NB4 cells [1] (1.5 μM compound alone), 44%; in the assay with NB4 cells [1] (3 μM compound + 20 nM ATRA) it was 94.7%; in the assay with NB4 cells [1] (3 μM compound alone), 69.3%. In addition, in the assay on NB4 cells [1] (alone or in combination with 20 nM ATRA), the “effect on CD11b positive cells, in words” value was “significant and dose-dependent increase in the amount of CD11b positive cells”. The Acetyl-H4 densitometric value in the assay with acetylated H4 histone (0.5 μM) stood at 1.3 arbitrary units; in the assay with acetylated H4 histone (1 μM), 1.8 arbitrary units; with acetylated H4 histone (2.5 μM) it was 4 arbitrary units. For the same molecule, in the assay on acetylated H4 histone, the “H4 histone acetylating activity, in words” value is given as “good H4 histone acetylating activity”. Also, the IC50 in the assay with NB4 cells [2] (Homo sapiens, NB-4) is 4.9 µM. Also, the “apoptotic activity, in words” value with NB4 cells [2] is reported as “excellent apoptotic activity”. Moreover, the “% of NBT+ cells” value in the assay on NB4 cells [3] (1.5 μM compound + 20 nM ATRA) was found to be 45%; in the assay on NB4 cells [3] (1.5 μM compound alone) it was 2%; with NB4 cells [3] (3 μM compound + 20 nM ATRA), 80%; with NB4 cells [3] (3 μM compound alone), 3%. Besides, the Acetyl-H3 densitometric value with acetylated H3 histone (0.5 μM) amounted to 2.26 arbitrary units; with acetylated H3 histone (1 μM), 2.41 arbitrary units; in the assay with acetylated H3 histone (2.5 μM), 2.836 arbitrary units.

`CN1C(=O)CN=C(c2ccccc2)c2cc(NC(=O)CCCCCCC(=O)NO)ccc21` [Compound (III) R1 and R2 = hydrogen, N1-(1-methyl-2-oxo-5-phenyl-2,3-dihydro-1H-benzo[e][1,4]diazepin-7-yl)-N8-hydroxyoctanediamide]: the Acetyl-H4 densitometric value is recorded as 2.39 arbitrary units with acetylated H4 histone (1 μM) and 6.63 arbitrary units in the assay on acetylated H4 histone (2 μM). Besides, the IC50 with NB4 cells [2] (Homo sapiens, NB-4) is 3 µM. Further, in the assay on NB4 cells [2], the “apoptotic activity, in words” value is “good acetylating and apoptotic activities”. Further, the Acetyl-H3 densitometric value in the assay with acetylated H3 histone (1 μM) came to 2.84 arbitrary units; with acetylated H3 histone (2 μM), 3.23 arbitrary units. Also, in the assay with acetylated H3 histone (summary in description), the “HDAC inhibitory / acetylating activity, in words (histone not specified)” value was “good acetylating and apoptotic activities”.
